The results in this text go back to US10894782B2, “Modulators of P97 AAA ATPase activity” (University of Pittsburgh—Of the Commonwealth System of …, priority 2016, dated 2021).

The experiment concerns the target P97 (Homo sapiens (Human), UniProt P55072). Put plainly: P97 Biomolgreen ATPase assay, 200 μM ATP. The experiment is classed as biochemical.
[1] abbreviates: read-out: P97 Biomolgreen, IC50.

Where two headings read alike, the source gives them in different places.

Sequence of P97 (P55072 whole entry): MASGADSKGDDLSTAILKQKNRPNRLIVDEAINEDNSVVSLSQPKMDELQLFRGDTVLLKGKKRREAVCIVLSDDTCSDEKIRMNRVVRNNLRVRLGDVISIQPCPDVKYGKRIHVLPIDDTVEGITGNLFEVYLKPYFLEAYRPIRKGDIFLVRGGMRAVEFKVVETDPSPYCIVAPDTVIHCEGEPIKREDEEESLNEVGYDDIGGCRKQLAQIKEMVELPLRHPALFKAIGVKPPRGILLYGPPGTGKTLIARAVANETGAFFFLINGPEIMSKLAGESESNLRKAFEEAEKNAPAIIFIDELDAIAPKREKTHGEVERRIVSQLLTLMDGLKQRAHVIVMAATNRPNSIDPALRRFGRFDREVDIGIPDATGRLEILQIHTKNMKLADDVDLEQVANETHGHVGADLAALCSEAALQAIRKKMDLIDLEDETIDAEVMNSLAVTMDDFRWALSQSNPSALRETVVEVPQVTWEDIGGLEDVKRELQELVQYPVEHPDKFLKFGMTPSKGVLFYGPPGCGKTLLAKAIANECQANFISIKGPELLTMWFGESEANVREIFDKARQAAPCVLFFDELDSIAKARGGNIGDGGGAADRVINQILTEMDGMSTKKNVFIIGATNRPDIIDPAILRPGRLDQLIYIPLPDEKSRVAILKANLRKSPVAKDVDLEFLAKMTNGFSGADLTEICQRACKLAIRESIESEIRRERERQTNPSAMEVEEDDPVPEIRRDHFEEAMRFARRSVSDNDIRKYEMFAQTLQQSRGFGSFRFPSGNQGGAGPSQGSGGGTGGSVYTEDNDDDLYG

As for `OCC#Cc1cc(F)c(OCc2nnc(SC3C=CCCC3)n2-c2cccnc2)cc1F` (centres unmarked) [Compound 114], the IC50 under setting [1] came to 0.02 µM. As for `C#Cc1ccc(OCc2nnc(SC3CCCC3)n2-c2cccnc2)cc1C` [Compound 2], the IC50 under setting [1] was determined as 0.049 µM. For `[2H]C1([2H])C([2H])([2H])C([2H])([2H])C([2H])(Sc2nnc(CNc3ccc(C#CCO)c(C)c3)n2-c2cccnc2)C1([2H])[2H]` [Compound 117], where the note is “P97 Biomolgreen, IC50 (μM)”, half-maximal inhibition (IC50) required 0.99 µM. Regarding `CCC(=O)NCC#Cc1ccc(OCc2nnc(SCC(=O)CCl)n2-c2cccnc2)cc1C` [Compound 132], under setting [1], the IC50 was 2.77 µM. The same measure, in the same setting: next, `Cc1cc(OCc2nnc(S(=O)(=O)C3C=CCCC3)n2-c2cccnc2)ccc1C#CCO` (centres unmarked) [Compound 98]: 4.82 µM. Same read-out and setting: next, `Cc1cc(OCc2nnc(OC3CCCC3)n2-c2cccnc2)ccc1C#CCO` [Compound 99]: 0.183 µM. Turning to `CCC(=O)NCC#Cc1ccc(OCc2nnc(SCC3CO3)n2-c2cccnc2)cc1C` (centres unmarked) [Compound 129], the “P97 Biomolgreen; 200 μM ATP; IC50 (μM)” value was “not active”. For the molecule `Cc1cc(OCc2nnc(SC3C=CCCC3)n2-c2cccnc2)ccc1C#CCOC(=O)NCC1(N2CCN(C(C)C)CC2)CCC1` (centres unmarked) [Compound 30], the IC50 under setting [1] worked out at 0.011 µM. In the case of `Cc1cc(OCc2nnc(SC3C=CCCC3)n2-c2cccnc2)ccc1C#CCOC(=O)NCCC(=O)N1CCN(C)CC1` (centres unmarked) [Compound 61], the IC50 under setting [1] is 0.029 µM. On to `[2H]C1([2H])C([2H])([2H])C([2H])([2H])C([2H])(Sc2nnc(COc3ccc(C#CCNC(=O)OC(C)(C)C)c(C)c3)n2-c2cccnc2)C1([2H])[2H]` [Compound 46], for which the IC50 (P97 Biomolgreen, IC50 (μM)) came out at 0.19 µM. On to `Cc1cc(OCc2nnc(SC3CCCC3)n2-c2cccnc2)ccc1C#CCOC(=O)NCCNC(=O)CC1[C@H]2CC3C[C@H](C2)C[C@H]1C3` (some centres unmarked) [Compound 110], for which the IC50 under setting [1] worked out at 0.06 µM. Consider `[2H]C1([2H])C([2H])([2H])C([2H])([2H])C([2H])(Sc2nnc(COc3ccc(C#CCO)c(C)c3)n2-c2cccnc2)C1([2H])[2H]` [Compound 93], for which it took 0.048 µM to reach half-maximal inhibition (P97 Biomolgreen, IC50 (μM)) (IC50). Consider `Cc1cc(OCc2nnc(SC3C=CCCC3)n2-c2cccnc2)ccc1C#CCNS(=O)(=O)N1CCCC1` (centres unmarked) [Compound 64], for which the concentration for half-maximal inhibition (IC50) under setting [1] worked out at 0.06 µM.

Turning to `Cc1cc(OCc2nnc(SC3C=CCCC3)n2-c2cccnc2)ccc1C#CCNC(=O)NCC#Cc1ccc(OCc2nnc(SC3C=CCCC3)n2-c2cccnc2)cc1C` (centres unmarked) [Compound 134], the IC50 under setting [1] was determined as 0.25 µM. On the same count and under the same terms, the same measure for `Cc1cc(OCc2nnc(SCC3CC3)n2-c2cccnc2)ccc1C#CCO` [Compound 128]: 0.13 µM; for `Cc1ccc(S(=O)(=O)NCC#Cc2ccc(OCc3nnc(SC4C=CCCC4)n3-c3cccnc3)cc2C)cc1` (centres unmarked) [Compound 7]: 0.13 µM.

On to `Cc1cc(OCc2nnc(SC3C=CCCC3)n2-c2cncc(Cl)c2)ccc1C#CCOC(=O)NCCN1CCN(C)CC1` (centres unmarked) [Compound 85], for which, under setting [1], the IC50 turned out to be 0.934 µM. `[2H]C1([2H])C([2H])([2H])C([2H])([2H])C([2H])(Sc2nnc(COc3ccc(C#CCOC(=O)NCCc4ncnn4C)c(C)c3)n2-c2cccnc2)C1([2H])[2H]` [Compound 31] gave an IC50 (P97 Biomolgreen, IC50 (μM)) of 0.052 µM. As for `Cc1cc(OCc2nnc(SC3C=CCCC3)n2-c2cccnc2)ccc1C#CCNC1CCCCC1` (centres unmarked) [Compound 17], under setting [1], the IC50 came to 0.04 µM.

Take `[2H]C1([2H])C([2H])([2H])C([2H])([2H])C([2H])(Sc2nnc(COc3cc(F)c(C#CCO)cc3F)n2-c2cccnc2)C1([2H])[2H]` [Compound 123]: the IC50 (P97 Biomolgreen, IC50 (μM)) stood at 0.021 µM. For the molecule `CN1CCC(NC(=O)OCC#Cc2c(F)cc(OCc3nnc(SC4C=CCCC4)n3-c3cccnc3)cc2F)CC1` (centres unmarked) [Compound 120], under setting [1], the IC50 turned out to be 0.012 µM. As for `[2H]C1([2H])C([2H])([2H])C([2H])([2H])C([2H])(Sc2nnc(COc3ccc(C#CC(C)OC(=O)NC(C)C)c(C)c3)n2-c2cccnc2)C1([2H])[2H]` (centres unmarked) [Compound 1], half-maximal inhibition (P97 Biomolgreen, IC50 (μM)) (IC50) was put at 0.16 µM. Turning to `Cc1cc(OCc2nnc(CC3CCCC3)n2-c2cccnc2)ccc1C#CCOC(=O)NCCC(=O)N1CCN(C)CC1` [Compound 70], the concentration for half-maximal inhibition (IC50) under setting [1] worked out at 0.098 µM. In the case of `[2H]C1([2H])C([2H])([2H])C([2H])([2H])C([2H])(Sc2nnc(COc3ccc(C#CC(C)OC)c(C)c3)n2-c2cccnc2)C1([2H])[2H]` (centres unmarked) [Compound 27], 0.16 µM corresponded to half-maximal inhibition (P97 Biomolgreen, IC50 (μM)) (IC50).

The molecule `[2H]C1([2H])C([2H])([2H])C([2H])([2H])C([2H])(Sc2nnc(COc3ccc(C#CCNCC4(N5CCN(C(C)C)CC5)CCC4)c(C)c3)n2-c2cccnc2)C1([2H])[2H]` [Compound 67] registered an IC50 (P97 Biomolgreen, IC50 (μM)) of 0.2 µM. As to `COc1cc(C#CCO)c(F)cc1OCc1nnc(SC2C=CCCC2)n1-c1cccnc1` (centres unmarked) [Compound 116], under setting [1], the IC50 came out at 0.04 µM. Regarding `[2H]C([2H])(O)C#Cc1ccc(OCc2nnc(SC3([2H])C([2H])([2H])C([2H])([2H])C([2H])([2H])C3([2H])[2H])n2-c2cccnc2)cc1F` [Compound 109], the IC50 (P97 Biomolgreen, IC50 (μM)) was 0.03 µM. `Cc1cc(OCc2nnc(SC3C=CCCC3)n2-c2cccnc2)ccc1C#CCNC(C)C` (centres unmarked) [Compound 16]: the IC50 under setting [1] was 0.055 µM. Take `[2H]C1([2H])C([2H])([2H])C([2H])([2H])C([2H])(Sc2nnc(COc3ccc(C#CCO)c(F)c3)n2-c2cccnc2)C1([2H])[2H]` [Compound 105]: for the setting “P97 Biomolgreen, IC50 (μM)”, the IC50 was 0.03 µM. Turning to `Cc1cc(OCc2nnc(SC3CCCC3)n2-c2cccnc2)ccc1C#CCOC(=O)NC(C)C` [Compound 22], the IC50 under setting [1] is 0.027 µM. `Cc1cc(OCc2nnc(SC3C=CCCC3)n2-c2cccnc2)ccc1C#CCNS(=O)(=O)C1CCN(C(=O)OC(C)(C)C)CC1` (centres unmarked) [Compound 78]: the IC50 under setting [1] was determined as 0.09 µM.

In the case of `Cc1cc(OCc2nnc(SC3C=CCCC3)n2-c2cccnc2)ccc1C#CCOC(=O)N1CCN(C(C)C)CC1` (centres unmarked) [Compound 101], the IC50 under setting [1] amounted to 0.03 µM.

`Cc1cc(OCc2nnc(CC3CCCC3)n2-c2cccnc2)ccc1C#CCOC(=O)NCCN1CCN(C)CC1` [Compound 69]: the IC50 under setting [1] came out at 0.066 µM. `[2H]C1([2H])C([2H])([2H])C([2H])([2H])C([2H])(Sc2nnc(COc3ccc(C#CC(O)c4ccccc4)c(C)c3)n2-c2cccnc2)C1([2H])[2H]` (centres unmarked) [Compound 52]: half-maximal inhibition (P97 Biomolgreen, IC50 (μM)) (IC50) was put at 0.55 µM.

Regarding `Cc1cc(OCc2nnc(SC3C=CCCC3)n2-c2cccnc2)ccc1C#CC1(O)CN(C(=O)OC(C)(C)C)C1` (centres unmarked) [Compound 72], the IC50 under setting [1] came out at 0.18 µM. As for `Cc1cc(OCc2nnc(SC3C=CCCC3)n2-c2cccnc2)ccc1C#CCNC(=O)NCCN1CCN(C(C)C)CC1` (centres unmarked) [Compound 73], the IC50 under setting [1] turned out to be 0.052 µM. For the molecule `[2H]C1([2H])C([2H])([2H])C([2H])([2H])C([2H])(Sc2nnc(COc3cc(F)c(C#CCOC(=O)NC4CCN(C)CC4)cc3F)n2-c2cccnc2)C1([2H])[2H]` [Compound 124], under “P97 Biomolgreen, IC50 (μM)”, the midpoint of inhibition, the IC50, lay at 0.01 µM. Same read-out and setting: next, `[2H]C1([2H])C([2H])([2H])C([2H])([2H])C([2H])(Sc2nnc(COc3ccc(C#CCOC(=O)N4CCOCC4)c(C)c3)n2-c2cccnc2)C1([2H])[2H]` [Compound 6]: 0.044 µM. In the case of `CC(=O)NCC#Cc1ccc(OCc2nnc(SC3C=CCCC3)n2-c2cccnc2)cc1C` (centres unmarked) [Compound 83], the IC50 under setting [1] came out at 0.046 µM.

In turn, `[2H]C1([2H])C([2H])([2H])C([2H])([2H])C([2H])(Sc2nnc(COc3ccc(C#CCNCCN4CCN(C)CC4)c(C)c3)n2-c2cccnc2)C1([2H])[2H]` [Compound 68] came in with an IC50 (P97 Biomolgreen, IC50 (μM)) of 0.17 µM.

Under “P97 Biomolgreen, IC50 (μM)”, `[2H]C1([2H])C([2H])([2H])C([2H])([2H])C([2H])(Sc2nnc(COc3ccc(C#CCOC(=O)NCCN4CCCN(C(C)C)CC4)c(C)c3)n2-c2cccnc2)C1([2H])[2H]` [Compound 32] came in with a concentration for half-maximal inhibition (IC50) of 0.023 µM.
